# Measured values: BindingDB's records for PubMed 11303071 (Banyu Pharmaceutical, 2001)
# pKi: −log10 of the molar value.
# Columns and labels:
# [1] = biological target: Muscarinic acetylcholine receptor M3 (Rattus norvegicus, UniProt P08483)
# [2] = biological target: T1, Muscarinic acetylcholine receptor M4 (Homo sapiens, UniProt P08173)
# T1 sequence (P08173 whole entry): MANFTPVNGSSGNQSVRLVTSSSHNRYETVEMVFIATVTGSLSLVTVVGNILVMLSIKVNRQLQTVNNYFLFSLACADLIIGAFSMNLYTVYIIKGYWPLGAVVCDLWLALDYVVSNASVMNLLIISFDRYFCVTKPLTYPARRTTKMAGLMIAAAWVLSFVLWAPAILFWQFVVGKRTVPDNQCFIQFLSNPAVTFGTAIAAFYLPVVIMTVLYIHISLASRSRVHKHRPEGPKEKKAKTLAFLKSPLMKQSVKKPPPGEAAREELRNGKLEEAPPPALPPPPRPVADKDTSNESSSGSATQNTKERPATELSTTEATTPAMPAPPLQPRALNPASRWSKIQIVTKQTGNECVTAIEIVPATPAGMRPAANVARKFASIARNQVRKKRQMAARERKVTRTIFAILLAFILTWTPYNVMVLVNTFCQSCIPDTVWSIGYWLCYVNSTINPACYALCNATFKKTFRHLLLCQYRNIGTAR
# [3] = biological target: T2, Muscarinic acetylcholine receptor M5 (Homo sapiens, UniProt P08912)
# T2 sequence (P08912 whole entry): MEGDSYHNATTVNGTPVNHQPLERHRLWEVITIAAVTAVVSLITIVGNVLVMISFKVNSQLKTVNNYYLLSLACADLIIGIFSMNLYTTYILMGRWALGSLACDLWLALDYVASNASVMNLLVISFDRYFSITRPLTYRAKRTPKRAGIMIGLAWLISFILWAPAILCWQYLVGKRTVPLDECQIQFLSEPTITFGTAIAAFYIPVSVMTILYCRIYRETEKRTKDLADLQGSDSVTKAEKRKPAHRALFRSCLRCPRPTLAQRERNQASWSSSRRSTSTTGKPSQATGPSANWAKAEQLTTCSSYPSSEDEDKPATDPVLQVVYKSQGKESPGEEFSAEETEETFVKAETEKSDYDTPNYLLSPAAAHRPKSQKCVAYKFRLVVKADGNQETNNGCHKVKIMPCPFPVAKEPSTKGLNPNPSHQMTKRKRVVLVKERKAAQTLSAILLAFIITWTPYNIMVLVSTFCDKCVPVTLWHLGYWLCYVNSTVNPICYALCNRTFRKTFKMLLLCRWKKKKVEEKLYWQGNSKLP
# [4] = biological target: T3, Muscarinic acetylcholine receptor M2 (Homo sapiens, UniProt P08172)
# T3 sequence (P08172 whole entry): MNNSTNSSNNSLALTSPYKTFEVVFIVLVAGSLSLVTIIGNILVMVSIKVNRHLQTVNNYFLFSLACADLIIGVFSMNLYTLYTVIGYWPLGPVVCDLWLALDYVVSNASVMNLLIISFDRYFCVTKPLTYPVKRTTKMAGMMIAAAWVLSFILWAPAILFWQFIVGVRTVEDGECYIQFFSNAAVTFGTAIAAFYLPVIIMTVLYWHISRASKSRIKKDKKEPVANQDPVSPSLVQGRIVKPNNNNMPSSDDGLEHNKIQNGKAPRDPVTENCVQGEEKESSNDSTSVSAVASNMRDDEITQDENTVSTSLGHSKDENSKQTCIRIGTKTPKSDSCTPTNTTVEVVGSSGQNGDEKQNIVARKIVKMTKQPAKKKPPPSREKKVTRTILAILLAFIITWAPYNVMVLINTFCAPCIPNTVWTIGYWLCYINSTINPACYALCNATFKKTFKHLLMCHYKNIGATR
# Chain of Muscarinic acetylcholine receptor M3 (P08483 whole entry): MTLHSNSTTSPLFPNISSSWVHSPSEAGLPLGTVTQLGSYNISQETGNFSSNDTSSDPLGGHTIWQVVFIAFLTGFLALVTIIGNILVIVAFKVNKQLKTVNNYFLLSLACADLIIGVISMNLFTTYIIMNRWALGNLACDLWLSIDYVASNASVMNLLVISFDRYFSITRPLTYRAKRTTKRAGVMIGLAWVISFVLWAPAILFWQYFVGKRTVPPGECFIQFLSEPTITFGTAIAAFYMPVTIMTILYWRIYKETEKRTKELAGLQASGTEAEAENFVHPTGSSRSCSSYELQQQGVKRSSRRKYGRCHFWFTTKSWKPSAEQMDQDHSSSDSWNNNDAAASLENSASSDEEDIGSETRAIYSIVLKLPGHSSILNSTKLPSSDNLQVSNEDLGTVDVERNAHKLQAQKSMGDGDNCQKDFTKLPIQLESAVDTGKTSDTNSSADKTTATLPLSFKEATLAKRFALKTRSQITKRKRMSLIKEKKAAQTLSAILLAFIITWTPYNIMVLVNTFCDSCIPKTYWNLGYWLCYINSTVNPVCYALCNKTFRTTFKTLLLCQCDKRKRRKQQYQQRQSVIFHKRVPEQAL
Structure (SMILES),pKi [1],pKi [2],pKi [3],pKi [4]
NC1=COC=C(CN2CCC(NC(=O)[C@](O)(c3ccccc3)[C@@H]3CCC(F)(F)C3)CC2)N1 [Compound A],8.59,7.82,8.11,6.27
NC(=O)C(c1ccccc1)(c1ccccc1)[C@@H]1CCN(CCc2ccc3c(c2)CCO3)C1 [Enablex],,8.07,8.64,
